# Laboratory results as given in EP0002836A1, “Acylhydrocarbylaminoalcanecarboxylic acids, their preparation and their use, and pharmaceutical compositions containing them” (Byk Gulden Lomberg Chemische Fabrik GmbH, priority 1977, dated 1979).
# Experiments:
# [1] = tested on: Gallesekretion narkotisierter Ratten; test: Bile secretion (choleresis) of anaesthetised rats after intraduodenal administration; format: in vivo, Ratte; conditions: for ED50: Rattus norvegicus, 0.5 h, Ratte i.d., dose that raises bile secretion (fluid volume, 30-min fraction) by maximally 50 %; for TQ [LD50/ED50]: LD50 (Maus, i.p.) / ED50 Gallesekretion (Ratte i.d.), for Lfd.Nr. 1 the cited p.o. LD50
# Source text: (§1) In Tabelle II werden Untersuchungen der Gallesekretion (Cholerese) von narkotisierten Ratten nach intraduodenaler Applikation (ED50) und die letale Wirkung an der Maus (LD50) nach intraperitonealer Applikation von Vertretern der erfindungsgemäßen Verbindungen sowie der therapeutische Quotient (TQ = LD50/ED50) wiedergegeben.
# (§2) Einfluß auf die Pankreas- und Gallesekretion der narkotisierten Ratte Versuchsdurchführung:
# (§3) Männliche Sprague-Dawley-Ratten (250 - 300 ^g Körpergewicht) werden mit 1,2 g/kg Urethan i.m. narkotisiert. Dann wird die Bauchhöhle medial geöffnet, der Ductus choledochus kurz oberhalb seiner Mündung in das Duodenum sowie nahe der Leberpforte ligiert, beide Gangabschnitte werden leberwärts katheterisiert.
# (§4) Da bei der Ratte alle Pankreaskanäle in den mittleren Abschnitt des Ductus choledochus munden,lassen sich auf diese Weise aus dem distalen (ligierten) Gangabschnitt das Pankreassekret und aus dem proximalen Teil des Ductus choledochus die Galle getrennt ableiten.
# (§5) Die sezernierten Mengen an Pankreas- und Gallensaft werden in 30 min. Abständen während 2 Stunden vor bis 3 Stunden nach der intraduodenalen ([…]) Verabreichung der zu prüfenden Verbindungen (verabreichtes Flüssigkeitsvolumen 5 ml/kg) gemessen.
# (§6) Die Körpertemperatur der Tiere wird mittels Heizkissen und Bestrahlung auf 36 - 38°C gehalten; die Temperaturkontrolle erfolgt rectal.
# (§7) Auswertung: • Die Flüssigkeitsvolumina der 30-min.-Fraktionen nach der Substanzgabe werden jeweils auf die vor der Substanzapplikation ausgeschiedene Galle- bzw. Pankreassaftmenge (= 100 %, Mittelwert aus den beiden letzten Messungen) bezogen. Die maximale prozentuale Steigerung der Pankreas- bzw. Gallesekretion wird in Abhängigkeit von der Dosis dargestellt und daraus die ED50 durch Interpolation ermittelt.
# [2] = tested on: Pankreassekretion narkotisierter Ratten; test: Pancreatic secretion of anaesthetised rats after intraduodenal administration; format: in vivo, Ratte; conditions: for ED50: Rattus norvegicus, 0.5 h, Ratte, i.d., dose that raises pancreatic secretion (fluid volume, 30-min fraction) by maximally 50 %; for TQ [LD50/ED50]: LD50 (Maus, i.p.) / ED50 Pankreassekretion (Ratte, i.d.), for Lfd.Nr. 1 the cited p.o. LD50
# Source text: as §1, with “I” for “II”, “Pankreassekretion” for “Gallesekretion (Cholerese)”, “(^TQ” for “(TQ”
# as §2, §3, §4, §5, §6, §7
# [3] = tested on: Maus; test: Acute toxicity in mice, intraperitoneal; format: in vivo; conditions: i.p., female NMRI mice, 14 days observation
# Source text: (§8) Die Toxizitätsuntersuchungen werden an weiblichen NMRI-Mäusen (Körpergewicht 22 - 26 g) durchgeführt. Die Tiere (5 Tiere pro Dosis) erhalten Futter und Wasser ad libitum. Verschiedene Dosierungen der Substanzen werden intraperitoneal verabreicht. Die Beobachtungsdauer beträgt 14 Tage. Die DL50, d.h. die Dosis, bei der 50 % der Tiere sterben, wird aus der Dosiswirkungskurve ermittelt.
# [4] = tested on: CCl4-lebergeschädigte Ratten; test: Antihepatotoxic effect: hexobarbital sleeping time of rats after CCl4 liver damage; format: in vivo, Ratte; conditions: for TQ [LD50/ED50]: LD50 (Maus i.p.) / ED50 antihepatotoxischer Effekt (Ratte, p.o.), for Lfd.Nr. 1 the cited p.o. LD50; for ED50: Rattus norvegicus, po, Ratte, p.o., dose that shortens hexobarbital narcosis of CCl4-liver-damaged rats by 50 %, sodium salts in aqueous solution, given 1 h before CCl4, read-out: Antihepatotoxischer Effekt ED50
# Source text: In Tabelle III werden Untersuchungen der antihepatotoxischen Wirkung (ED50) erfindungsgemäßer Verbindungen nach oraler Applikation an wachen Ratten und die letale Wirkung nach intraperitonealer Applikation an der Maus (LD50) sowie der therapeutische Quotient (TQ = LD50/ED50) wiedergegeben.
# Prüfung auf antihepatotoxische Wirkung
# Einfluß auf die Hexobarbitalschlafdauer der Ratte nach CCl4-Leberschädi- gung
# Versuchsdurchführung: • In Anlehnung an VOGEL et al. [Arzneim.Forsch. 25(1975)82] wird bei nüchternen weiblichen Sprague-Dawley-Ratten (190 *10 g Körpergewicht, 10 Tiere/Dosis pro Versuchsansatz) durch orale Verabreichung von Tetrachlorkohlenstoff ([…] CC14 in 2,5 ml/kg Olivenöl) ein Leberzellenschaden erzeugt, dessen Ausmaß an der Verlängerung der Hexobarbitalnatrium-Schlafdauer (50mg/ml/kg i.v.;Schwanzvene, Injektionsdauer 45 - 60 sec.) 47 Stunden nach der CC14-Gabe bestimmt wird. Die zu prüfenden Verbindungen werden eine Stunde vor der CC14-Gabe oral in einem Flüssigkeitsvolumen von 10 ml/kg verabreicht.
# Auswertung: • Der antihepatotoxische Effekt der zu prüfenden Verbindungen (NatriumSalze in wäßriger Lösung) wird an der prozentualen Verkürzung der durch die CC14-Leberzellschädigung bedingten Schlafdauerverlängerung bei den behandelten Gruppen gegenüber der Schlafdauerverlängerung der CC14-Kontrollgruppe (= 100 %) gemessen. Die ED50 wurde durch Interpolation aus der Dosis-Wirkungskurve ermittelt.
# [5] = Acute toxicity in mice, intraperitoneal; format: in vivo; conditions: mouse, in vivo, ip; Maus, i.p.; female NMRI mice, 14 days observation; read-out: Toxizität LD50
# Source text: as §8
Compound,ED50 ([1]; intraduodenal) [mg/kg],ED50 ([2]; intraduodenal) [mg/kg],Toxizität LD50 [3] [mg/kg],TQ [LD50/ED50] [4],ED50 [4] [mg/kg],TQ [LD50/ED50] [1],ED50 [1] [mg/kg],LD50 at 336 h [5] [mg/kg],TQ [LD50/ED50] [2],ED50 [2] [mg/kg],TQ [LD50/ED50] ([2]; listed as 1)
C#CC1(N(CCCC(=O)O)C(=O)c2ccc(Cl)cc2)CCCCC1 [Beispiel 5],6,–,–,–,–,–,–,–,–,–,–
CC(C)(C)CC(C)(C)N(CCCC(=O)O)C(=O)c1ccc(F)cc1 [Beispiel 16],–,~10,400,–,–,–,–,–,–,–,–
"CC(C)(C)N(CCCC(=O)O)C(=O)c1ccc(Cl)cc1 [Lfd. Nr. 2, N-p-Chlorbenzoyl-4-(tert.-butylamino)-buttersäure]",–,–,–,> 10,100,> 40,25,> 1000,–,–,–
"C#CC(C)(C)N(CCCC(=O)O)C(=O)c1ccc(Cl)cc1 [Lfd. Nr. 3, N-p-Chlorbenzoyl-4-[(2-methyl-3-butin-2-yl)-amino]-buttersäure]",–,–,–,–,–,–,–,> 1000,»100,10,–
"C#CC(CC)(CC)N(CCCC(=O)O)C(=O)c1ccc(Cl)cc1 [Lfd. Nr. 4, N-p-Chlorbenzoyl-4-[(3-ethyl-1-pentin-3-yl)-amino]-buttersäure]",–,–,–,"7,8",100,43,18,780,156,5,–
"O=C(O)CCCN(C(=O)c1ccc(Cl)cc1)C12CC3CC(CC(C3)C1)C2 [Lfd. Nr. 6, N-p-Chlorbenzoyl-4-(1-adamantyl)-aminobuttersäure]",–,–,–,110,10,220,5,1100,~220,~5,–
"CC(C)(C)CC(C)(C)N(CCCC(=O)O)C(=O)c1ccc(Cl)cc1 [Lfd. Nr. 7, N-p-Chlorbenzoyl-4-[(1.1.3.3-tetramethyl-butyl)-amino]-butter-säure]",–,–,–,"< 3,6",> 300,27,40,–,–,35,31
"C#CC1(N(CCCC(=O)O)C(C)=O)CCCCC1 [Lfd. Nr. 8, N-Acetyl-4-[(1-ethinyl-cyclohexyl-1)-amino]-buttersäure]",–,–,–,–,–,32,6,190,–,–,–
"CCC(C)(C)N(CCCC(=O)O)C(=O)c1ccc(Cl)cc1Cl [Lfd. Nr. 11, N-2,4-Dichlorbenzoyl-4-[(1.1-dimethyl-propyl)-amino]-butter-säure]",–,–,–,–,–,–,–,200,200,1,–
"O=C(O)CCCN(Cc1ccccc1)C(=O)c1ccc(Cl)cc1 [Lfd. Nr. 15, N-p-Chlorbenzoyl-4-benzylamino-buttersäure]",–,–,–,"18,8",8,–,–,150,60,2.5,–
"O=C(O)CCCN(C(=O)c1ccc(Cl)cc1)C1CCCCCCC1 [Lfd. Nr. 18, N-p-Chlorbenzoyl-4-cyclooctylamino-buttersäure]",–,–,–,–,–,–,–,350,233,1.5,–
